From US7163960B2, “Treatment and prevention of inflammatory disorders” (Monsanto Technology L.L.C., priority 2002, dated 2007)
“Also recorded” adds a separate entry of the source. Marks after values point to notes of the source that are not given here.

How the values were obtained:
Type in all cases: in vivo, human
prostaglandin E2 (PGE2) = assay: PGE2 synthesis in LPS-stimulated whole blood; settings: for PGE2 synthesis in LPS-stimulated whole blood: mean ± SD
Description: (§1) Following a 3-week run-in period, subjects ingested either ALA, SDA, EPA supplied as ethyl esters in capsules. Intakes were 0.75 g/day for 3 weeks followed by 1.5 g/day for the subsequent 3 weeks.
(§2) Blood (4 mL) was added to heparinised tubes, bacterial lipopolysaccharide (LPS) was added (200 ng/mL), and the mixture was incubated at 37° C., 5% CO2, for 24 h. Plasma was collected and assayed for prostaglandin E2 (PGE2) by radioimmunoassay (RIA), interleukin-1β (IL-1β) and tumor necrosis factor-α (TNF-α) by ELISA, as described in Mantzioris et al., supra.

IL-1β = IL-1β synthesis in LPS-treated whole blood; settings: mean ± SD
Description: as §1, §2

TNF-α = TNF-α synthesis in LPS-treated whole blood; settings: mean ± SD
Description: as §1, §2

[1] = Fatty acid analysis of blood cell phospholipids and plasma lipid fractions after ingestion of test fatty acids; settings: for DHA (% of total fatty acids), Erythrocyte phospholipid / DHA (% of total fatty acids), Plasma phospholipid / DPA (% of total fatty acids), Erythrocyte phospholipid / DPA (% of total fatty acids), Plasma phospholipid / EPA (% of total fatty acids), Monocyte / EPA (% of total fatty acids), Plasma CE / EPA (% of total fatty acids), Plasma Phospholipid / EPA (% of total fatty acids), Plasma TG / EPA (% of total fatty acids), Platelet / EPA (% of total fatty acids), Red Blood: both, human, in vivo
Text: 45 males and post-menopausal female—19–65 years of age, normolipidemic, and with a body mass index (BMI) in the range 20 to 30, were recruited. Exclusion criteria included bleeding disorders, hypertension, inflammatory disorders, active gastrointestinal diseases, chronic use of low dose aspirin, consumption of restaurant or takeaway evening meals more than twice per week, use of dietary supplements rich in n-3 or n-6 fatty acids, habitual consumption of more than 1 fish meal per month, and plasma phospholipid EPA+DHA levels>7.9% of total fatty acids (level achieved in the study group was 4.9±1.0% of total fatty acids).
as §1
At each visit, 36 mL of blood was taken by venepuncture after an overnight fast. Blood was aliquoted into various tubes for the following procedures.
Blood (20 mL) was added to tubes containing 4 mL 4.5% EDTA in water and 4 mL—6% dextran in normal saline, pH 7.0. Erythrocytes were allowed to sediment under gravity at 37° C. for 30 min. The leucocyte-rich plasma was layered onto LYMPHOPREP, density 1.077 (Nycomed Pharma, Oslo) and centrifuged at 110 g for 10 min to separate leucocytes from the platelets, which were removed. The gradient was further centrifuged at 200 g for 20 min to separate the neutrophils from mononuclear cells, which were removed.
Samples were processed for fatty acid analysis as described in Mantzioris et al., Am. J. Clin. Nutr., 72:42–8 (2000). Plasma, washed platelet and mononuclear cell pellets were stored at −80° C. Erythrocyte pellets were treated fresh with chloroform:isopropanol (2:1) and the lipid extracts stored at 4° C. Plasma, platelet and mononuclear cell pellets were extracted with chloroform:methanol. The cellular and plasma lipid extracts were fractionated by thin-layer chromatography. For the cellular extracts, the phospholipid fraction was retained and for the plasma extracts, the phospholipid, cholesterol ester, and triglyceride fractions were retained. These were transesterified by methanolysis (1% H2SO4 in methanol at 70° C. for 3 h). Fatty acid methyl esters were separated and quantified with a HEWLETT-PACKARD 6890 gas chromatograph equipped with a 50 m capillary column coated with BPX-70 (0.25 μm film thickness; SGE Pty Ltd, Victoria, Australia) (see Mantzioris et al., supra). Fatty acid standards were obtained from NuChek Prep Inc. (Elysian, Minn.) and included stearidonic acid obtained from Sigma Aldrich Pty Ltd. (Castle Hill, NSW, Australia). All organic solvents contained butylated hydroxy anisole (0.005%) as an antioxidant.

[2] = Week 3 (after 0.75 g/day for 3 weeks)
[3] = Week 6 (after 1.5 g/day for 3 weeks)
[4] = Week −3 (start of run-in, before dosing)

Effect on DPA concentration in the phospholipid fractions of erythrocytes and plasma ([1]; 0.75 g/day): significantly increased | Effect on EPA concentration in the phospholipid fractions of erythrocytes and plasma ([1]; 0.75 g/day (weeks 0 to 3)): significantly increased | DHA (% of total fatty acids), Erythrocyte phospholipid ([1]; 0 week): 4.62 ± 0.69^b % of total fatty acids | DHA (% of total fatty acids), Plasma phospholipid ([1]; 0 weeks): 3.75 ± 0.77^ab % of total fatty acids | DPA (% of total fatty acids), Erythrocyte phospholipid ([1]; 0 weeks): 2.81 ± 0.24^a % of total fatty acids | DPA (% of total fatty acids), Plasma phospholipid ([1]; 0 weeks): 1.34 ± 0.22^a % of total fatty acids | EPA (% of total fatty acids), Monocyte ([1]; 0 weeks): 0.52 (0.11)a % of total fatty acids | EPA (% of total fatty acids), Plasma CE ([1]; 0 weeks): 1.02 (0.20)a % of total fatty acids | EPA (% of total fatty acids), Plasma Phospholipid ([1]; 0 weeks): 1.04 (0.23)a % of total fatty acids | EPA (% of total fatty acids), Plasma TG ([1]; 0 weeks): 0.27 (0.09)a % of total fatty acids | EPA (% of total fatty acids), Platelet ([1]; 0 weeks): 0.45 (0.09)a % of total fatty acids | EPA (% of total fatty acids), Red Blood ([1]; 0 weeks): 0.81 (0.14)^a % of total fatty acids | EPA (% of total fatty acids), Monocyte ([1]; 3 weeks): 1.38 (0.35)b1 % of total fatty acids | EPA (% of total fatty acids), Plasma CE ([1]; 3 weeks): 2.95 (0.74)b1 % of total fatty acids | EPA (% of total fatty acids), Plasma Phospholipid ([1]; 3 weeks): 2.71 (0.71)b1 % of total fatty acids | EPA (% of total fatty acids), Plasma TG ([1]; 3 weeks): 0.73 (0.20)b1 % of total fatty acids | EPA (% of total fatty acids), Platelet ([1]; 3 weeks): 1.08 (0.26)b1 % of total fatty acids | EPA (% of total fatty acids), Red Blood ([1]; 3 weeks): 1.60 (0.31)^b1 % of total fatty acids | EPA (% of total fatty acids), Monocyte ([1]; 6 weeks): 2.25 (0.74)c1 % of total fatty acids | EPA (% of total fatty acids), Plasma CE ([1]; 6 weeks): 4.53 (1.31)c1 % of total fatty acids | EPA (% of total fatty acids), Plasma Phospholipid ([1]; 6 weeks): 4.48 (1.35)c1 % of total fatty acids | EPA (% of total fatty acids), Plasma TG ([1]; 6 weeks): 1.23 (0.47)c1 % of total fatty acids | EPA (% of total fatty acids), Platelet ([1]; 6 weeks): 1.68 (0.43)c1 % of total fatty acids | EPA (% of total fatty acids), Red Blood ([1]; 6 weeks): 2.56 (0.65)^c1 % of total fatty acids | DHA (% of total fatty acids), Erythrocyte phospholipid ([1]; -3 week): 5.02 ± 0.89^a1,2 % of total fatty acids | DHA (% of total fatty acids), Plasma phospholipid ([1]; -3 weeks): 3.97 ± 1.06^a % of total fatty acids | DPA (% of total fatty acids), Erythrocyte phospholipid ([1]; -3 weeks): 2.92 ± 0.45^a1,2 % of total fatty acids | DPA (% of total fatty acids), Plasma phospholipid ([1]; -3 weeks): 1.31 ± 0.29^a % of total fatty acids | EPA (% of total fatty acids), Monocyte ([1]; -3 weeks): 0.66 (0.32)^a % of total fatty acids | EPA (% of total fatty acids), Plasma CE ([1]; -3 weeks): 1.03 (0.34)^a % of total fatty acids | EPA (% of total fatty acids), Plasma Phospholipid ([1]; -3 weeks): 1.10 (0.40)^a % of total fatty acids | EPA (% of total fatty acids), Plasma TG ([1]; -3 weeks): 0.31 (0.15)^a % of total fatty acids | EPA (% of total fatty acids), Platelet ([1]; -3 weeks): 0.44 (0.12)^a % of total fatty acids | EPA (% of total fatty acids), Red Blood ([1]; -3 weeks): 0.85 (0.16)^a % of total fatty acids | Effect on tissue levels of DHA (FIG. 1) ([1]; erythrocytes and plasma phospholipids, 1.5 g/day): decreased
SMILES: CC/C=C\C/C=C\C/C=C\C/C=C\C/C=C\CCCC(=O)O [EPA, eicosapentaenoic acid]
PGE2 synthesis in LPS-stimulated whole blood (prostaglandin E2 (PGE2); Week 0 (baseline)): 4.21 ± 1.59 ng/mL | PGE2 synthesis in LPS-stimulated whole blood (prostaglandin E2 (PGE2); [2]): 5.05 ± 2.16 ng/mL | PGE2 synthesis in LPS-stimulated whole blood (prostaglandin E2 (PGE2); [3]): 4.46 ± 1.47 ng/mL | PGE2 synthesis in LPS-stimulated whole blood (prostaglandin E2 (PGE2); [4]): 3.78 ± 1.95^1,2 ng/mL | Effect on LPS-stimulated PGE2 synthesis (prostaglandin E2 (PGE2); overall, either dose): no effect | IL-1β synthesis in LPS-treated whole blood (IL-1β; Week 0 (baseline)): 92.0 ± 25.4^a ng/mL | IL-1β synthesis in LPS-treated whole blood (IL-1β; [2]): 75.3 ± 27.6^b ng/mL | IL-1β synthesis in LPS-treated whole blood (IL-1β; [3]): 73.5 ± 16.4^b ng/mL | IL-1β synthesis in LPS-treated whole blood (IL-1β; [4]): 93.1 ± 26.8^a1,b ng/mL | TNF-α synthesis in LPS-treated whole blood (TNF-α; Week 0 (baseline)): 38.9 ± 12.5^a ng/mL | TNF-α synthesis in LPS-treated whole blood (TNF-α; [2]): 32.0 ± 11.8^ab ng/mL | TNF-α synthesis in LPS-treated whole blood (TNF-α; [3]): 27.6 ± 10.6^b ng/mL | TNF-α synthesis in LPS-treated whole blood (TNF-α; [4]): 36.6 ± 16.53^a1,2 ng/mL | Effect on DPA concentration in the phospholipid fractions of erythrocytes and plasma ([1]; 1.5 g/day): significantly increased; also recorded: elevated | Effect on EPA concentration in the phospholipid fractions of erythrocytes and plasma ([1]; 1.5 g/day (weeks 3 to 6)): significantly increased; also recorded: elevated | Change in erythrocyte DHA ([1]; higher dose (1.5 g/day)): slight, but statistically significant decrease
